This experiment has as its system 379773-124-R-J2-PDC spheroid viability. Nature of the experiment: Anticancer human tumor 379773-124-R-J2-PDC patient-derived endometrial carcinoma cell line growth inhibition [POLQ]. Conditions: spheroids with HUVEC and MSC; for viability, T/C: stronger effect = lower value. The method in brief: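 Patient-derived tumour cells were co-cultured with HUVEC and mesenchymal stem cells as multicellular spheroids at 37 °C. They were treated with POLQ inhibitors (novobiocin, ART-558, RP6685) alone or combined with other agents. Top concentrations were at or near clinical Cmax (otherwise 10 microM; SN-38 at 1 microM), decreasing in half-log steps.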

Where [1] appears, read: curve of first compound, second compound 0.0316 µM.
[2] abbreviates: curve of first compound, second compound 0.1 µM.
Where [3] appears, read: curve of first compound, second compound 0.316 µM.
[4] abbreviates: curve of first compound, second compound 1 µM.
Where [5] appears, read: curve of first compound, second compound 3.16 µM.
Setting [6] is: curve of first compound, second compound 10 µM.
Setting [7] is: second compound 0.0316 µM, first compound 0.0316 µM.
The mark [8] stands for this setting: second compound 0.0316 µM, first compound 0.1 µM.
The mark [9] stands for this setting: second compound 0.0316 µM, first compound 0.316 µM.
[10] abbreviates: second compound 0.0316 µM, first compound 1 µM.
[11] abbreviates: second compound 0.0316 µM, first compound 3.16 µM.
[12] abbreviates: second compound 0.0316 µM, first compound 10 µM.
Setting [13] is: second compound 0.1 µM, first compound 0.0316 µM.
[14] abbreviates: second compound 0.1 µM, first compound 0.1 µM.
[15] abbreviates: second compound 0.1 µM, first compound 0.316 µM.
Where [16] appears, read: second compound 0.1 µM, first compound 1 µM.
[17] abbreviates: second compound 0.1 µM, first compound 3.16 µM.
Where [18] appears, read: second compound 0.1 µM, first compound 10 µM.
The mark [19] stands for this setting: second compound 0.316 µM, first compound 0.0316 µM.
Where [20] appears, read: second compound 0.316 µM, first compound 0.1 µM.
Where [21] appears, read: second compound 0.316 µM, first compound 0.316 µM.
Setting [22] is: second compound 0.316 µM, first compound 1 µM.
[23] abbreviates: second compound 0.316 µM, first compound 3.16 µM.
Where [24] appears, read: second compound 0.316 µM, first compound 10 µM.
Setting [25] is: second compound 1 µM, first compound 0.0316 µM.
The mark [26] stands for this setting: second compound 1 µM, first compound 0.1 µM.
[27] abbreviates: second compound 1 µM, first compound 0.316 µM.
Setting [28] is: second compound 1 µM, first compound 1 µM.
Where [29] appears, read: second compound 1 µM, first compound 3.16 µM.
[30] abbreviates: second compound 1 µM, first compound 10 µM.
Where [31] appears, read: second compound 3.16 µM, first compound 0.0316 µM.
Setting [32] is: second compound 3.16 µM, first compound 0.1 µM.
Setting [33] is: second compound 3.16 µM, first compound 0.316 µM.
[34] abbreviates: second compound 3.16 µM, first compound 1 µM.
Where [35] appears, read: second compound 3.16 µM, first compound 3.16 µM.
Where [36] appears, read: second compound 3.16 µM, first compound 10 µM.
[37] abbreviates: second compound 10 µM, first compound 0.0316 µM.
Where [38] appears, read: second compound 10 µM, first compound 0.1 µM.
Where [39] appears, read: second compound 10 µM, first compound 0.316 µM.
Setting [40] is: second compound 10 µM, first compound 1 µM.
Where [41] appears, read: second compound 10 µM, first compound 3.16 µM.
The mark [42] stands for this setting: second compound 10 µM, first compound 10 µM.

“And” between values parts separate entries of the source, which are not always exact repeats. Equal entries are not always repeated.

In general, IC50 refers to the concentration needed to halve the response being measured. For orientation: viability, T/C means the result in the treated group divided by that in the control group, in per cent.
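Note: spheroids exposed to drugs for seven days before readout.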
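Throughout, for viability, T/C: percent viability relative to DMSO vehicle control taken as 100%.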

For `COc1cc(C2c3cc4c(cc3C(OC3OC5COC(C)OC5C(O)C3O)C3COC(=O)C23)OCO4)cc(OC)c1O` (centres undefined) + Cc1cccc(N(C)C(=O)C2C(O)CCN2c2nc(C)cc(C(F)(F)F)c2C#N)c1, the 50% inhibitory concentration (IC50) was determined as 1190 nM under setting [1]; 1230 nM under setting [2]; 914 nM under setting [3]; 1190 nM under setting [4]; 1040 nM under setting [5]; 577 nM under setting [6]. Moreover, the viability, T/C reads like this: under setting [7], 91.2%; under setting [8], 71.9%; under setting [9], 82.6%; under setting [10], 56.5%; under setting [11], 12.7%; under setting [12], 8.66%. Besides, the viability, T/C was 82.8% under setting [13]; 83.6% under setting [14]; 83.8% under setting [15]; 58% under setting [16]; 12.7% under setting [17]; 9.6% under setting [18]. The viability, T/C is 86% under setting [19]; 82% under setting [20]; 68.4% under setting [21]; 52.9% under setting [22]; 12% under setting [23]; 9.6% under setting [24]. The viability, T/C under setting [25] is 74.4%; the viability, T/C under setting [26] is 84.9%; the viability, T/C under setting [27] was 71.1%; the viability, T/C under setting [28] is 57.1%; the viability, T/C under setting [29] is 9.91%; the viability, T/C under setting [30] is 11.1%. Further, the viability, T/C runs as follows: under setting [31], 73.3%; under setting [32], 80.9%; under setting [33], 77.9%; under setting [34], 51.4%; under setting [35], 11%; under setting [36], 13.6%. For the same compound, the viability, T/C was 77.6% under setting [37]; 75% under setting [38]; 66.1% under setting [39]; 35.5% under setting [40]; 11.9% under setting [41]; 11.2% under setting [42].
`O=C(c1cc(Cc2n[nH]c(=O)c3ccccc23)ccc1F)N1CCN(C(=O)C2CC2)CC1`: the viability, T/C runs as follows: (compound 0.0316 µM) 90.8% and 82.3% and 93.3%; (compound 0.1 µM) 87% and 88.1% and 91.8%; (compound 0.316 µM) 74.1% and 91.5% and 88.4%; (compound 1 µM) 75.1% and 96.4% and 97.2%; (compound 3.16 µM) 86.8% and 84.9% and 86.2%; (compound 10 µM) 44.5% and 34.6% and 49.8%. Moreover, where the note is “curve of compound”, the half-maximal inhibitory concentration (IC50) is 8480 nM and 7080 nM and > 10000 nM.
As to `CC1COCCN1c1cc(C2(S(C)(=N)=O)CC2)nc(-c2ccnc3[nH]ccc23)n1` (centres undefined), the viability, T/C runs as follows: (compound 0.0316 µM) 78.3% and 87.6% and 81.5%; (compound 0.1 µM) 69.2% and 89.3% and 88.1%; (compound 0.316 µM) 71.7% and 86.7% and 72.9%; (compound 1 µM) 80.9% and 82.7% and 76.1%; (compound 3.16 µM) 34.5% and 44.9% and 28.5%; (compound 10 µM) 5.53% and 11.9% and 6.3%. Moreover, where the note is “curve of compound”, the IC50 was 2040 nM and 2710 nM and 1870 nM.
With `CCc1cc2c(N3CCc4c(cc(Cn5ccnc5)cc4-c4cn(C)nc4C(F)(F)F)C3=O)ccnc2c(OC)n1`, the viability, T/C reads like this: (compound 0.0316 µM) 72.1% and 87.3% and 77.8%; (compound 0.1 µM) 65% and 74.8% and 74.2%; (compound 0.316 µM) 53.4% and 64% and 69.2%; (compound 1 µM) 54.6% and 64.1% and 67.8%; (compound 3.16 µM) 63.3% and 59.9% and 57.4%; (compound 10 µM) 37.2% and 57.8% and 53.6%. The 50% inhibitory concentration (IC50) (curve of compound) is 3400 nM and > 10000 nM.
Consider `CCc1cc2c(N3CCc4c(cc(Cn5ccnc5)cc4-c4cn(C)nc4C(F)(F)F)C3=O)ccnc2c(OC)n1` + Nc1ccc(C#CCN(C(=O)Cc2ncc(C(F)(F)F)cc2C(F)(F)F)c2ccc(F)cc2)nn1, for which the IC50 by setting is: under setting [1], above 10000 nM; under setting [2], above 10000 nM; under setting [3], above 10000 nM; under setting [4], above 10000 nM; under setting [5], above 10000 nM; under setting [6], above 10000 nM. The viability, T/C was 83.1% under setting [7]; 68.2% under setting [8]; 61.3% under setting [9]; 59.1% under setting [10]; 61.6% under setting [11]; 54.8% under setting [12]. Besides, the viability, T/C runs as follows: under setting [13], 65.1%; under setting [14], 71.1%; under setting [15], 61.2%; under setting [16], 62.8%; under setting [17], 56.2%; under setting [18], 53.9%. In addition, the viability, T/C under setting [19] is 74.3%; the viability, T/C under setting [20] was 72.3%; the viability, T/C under setting [21] was 67%; the viability, T/C under setting [22] is 64.8%; the viability, T/C under setting [23] was 59.1%; the viability, T/C under setting [24] was 49.9%. Also, the viability, T/C was 84.5% under setting [25]; 69% under setting [26]; 65.2% under setting [27]; 64.8% under setting [28]; 56% under setting [29]; 53.6% under setting [30]. For the same compound, the viability, T/C is 71.4% under setting [31]; 69.7% under setting [32]; 65.8% under setting [33]; 70.8% under setting [34]; 60% under setting [35]; 52.6% under setting [36]. In addition, the viability, T/C reads like this: under setting [37], 85.4%; under setting [38], 79.2%; under setting [39], 61.6%; under setting [40], 67.5%; under setting [41], 55%; under setting [42], 49.6%.
For `CC(=O)O[C@H]1C(=O)[C@@]2(C)[C@H]([C@H](OC(=O)c3ccccc3)[C@]3(O)C[C@H](OC(=O)[C@H](O)[C@@H](NC(=O)c4ccccc4)c4ccccc4)C(C)=C1C3(C)C)[C@]1(OC(C)=O)CO[C@@H]1C[C@@H]2O`, the viability, T/C was 21.2% and 20.1% and 16.9% (compound 0.00949 µM); 7.51% and 10.1% and 8.5% (compound 0.03 µM); 14.2% and 12.2% and 9.35% (compound 0.0949 µM); 10.6% and 11.8% and 8.52% (compound 0.3 µM); 9.35% and 10.1% and 7.28% (compound 0.949 µM); 7.9% and 9.86% and 6.94% (compound 3 µM). In addition, the IC50 (curve of compound) was below 9.49 nM.
Turning to `Nc1ccn(C2OC(CO)C(O)C2(F)F)c(=O)n1` (centres undefined) + Cc1cccc(N(C)C(=O)C2C(O)CCN2c2nc(C)cc(C(F)(F)F)c2C#N)c1, the half-maximal inhibitory concentration (IC50) was below 31.6 nM under setting [1]; below 31.6 nM under setting [2]; below 31.6 nM under setting [3]; below 31.6 nM under setting [4]; below 31.6 nM under setting [5]; below 31.6 nM under setting [6]. For the same compound, the viability, T/C runs as follows: under setting [7], 25.1%; under setting [8], 9.7%; under setting [9], 7.84%; under setting [10], 9.16%; under setting [11], 9.02%; under setting [12], 7.36%. In addition, the viability, T/C under setting [13] is 21%; the viability, T/C under setting [14] is 11.4%; the viability, T/C under setting [15] is 10.4%; the viability, T/C under setting [16] was 8.24%; the viability, T/C under setting [17] was 9.14%; the viability, T/C under setting [18] is 8.33%. The viability, T/C was 25.4% under setting [19]; 11.3% under setting [20]; 7.36% under setting [21]; 9.63% under setting [22]; 9.1% under setting [23]; 9.51% under setting [24]. Besides, the viability, T/C runs as follows: under setting [25], 17.7%; under setting [26], 8.64%; under setting [27], 7.94%; under setting [28], 9.54%; under setting [29], 10.9%; under setting [30], 9.2%. The viability, T/C reads like this: under setting [31], 21.1%; under setting [32], 10.5%; under setting [33], 8.82%; under setting [34], 9.94%; under setting [35], 10.1%; under setting [36], 9.91%. For the same compound, the viability, T/C runs as follows: under setting [37], 15.7%; under setting [38], 10.8%; under setting [39], 12.1%; under setting [40], 11.4%; under setting [41], 13.6%; under setting [42], 11.1%.

The values above are taken from PubChem BioAssay AID1963848 (Molecular Pharmacology Branch, DTP, NCI, 2024).
